Results from publication doi:10.1101/2023.10.20.563248v1 (biorxiv, 2023).

Key:
Conditions in all cases: 1 µM; inhibitor
[1] = molecular target: CDK2/CycD1 (Homo sapiens, UniProt P24941)
[2] = molecular target: BLK (Homo sapiens, UniProt P51451)
[3] = molecular target: TGFBR1 (Homo sapiens, UniProt P36897)
[4] = molecular target: DDR2 (Homo sapiens, UniProt Q16832)
[5] = molecular target: EPHA4 (Homo sapiens, UniProt P54764)
[6] = molecular target: BRK (Homo sapiens, UniProt Q13882)
[7] = molecular target: IKKe (Homo sapiens, UniProt Q14164)
[8] = molecular target: PAK2 (Homo sapiens, UniProt Q13177)
[9] = molecular target: TLK2 (Homo sapiens, UniProt Q86UE8)
[10] = molecular target: JAK3 (Homo sapiens, UniProt P52333)
[11] = molecular target: CAMK2A (Homo sapiens, UniProt Q9UQM7)
[12] = molecular target: NEK1 (Homo sapiens, UniProt Q96PY6)
[13] = molecular target: CHK2 (Homo sapiens, UniProt O96017)
[14] = molecular target: CK1g3 (Homo sapiens, UniProt Q9Y6M4)
[15] = molecular target: CAMK2B (Homo sapiens, UniProt Q13554)
[16] = molecular target: SGK3 (Homo sapiens, UniProt Q96BR1)
[17] = molecular target: DNAPK (Homo sapiens, UniProt P78527)
[18] = molecular target: PKN3 (Homo sapiens, UniProt Q6P5Z2)
[19] = molecular target: CK1e (Homo sapiens, UniProt P49674)
[20] = molecular target: EEF2K (Homo sapiens, UniProt O00418)
[21] = molecular target: SAK (Homo sapiens, UniProt O00444)
[22] = molecular target: DYRK3 (Homo sapiens, UniProt O43781)
[23] = molecular target: PDGFRa (Homo sapiens, UniProt P16234)
[24] = molecular target: CDK4 (Homo sapiens, UniProt P11802)
[25] = molecular target: CDK5/p35NCK (Homo sapiens, UniProt Q00535)
[26] = molecular target: JAK2 (Homo sapiens, UniProt O60674)
[27] = molecular target: EPHA7 (Homo sapiens, UniProt Q15375)
[28] = molecular target: FGFR4 (Homo sapiens, UniProt P22455)
[29] = molecular target: TGFBR2 (Homo sapiens, UniProt P37173)
[30] = molecular target: CK1a (Homo sapiens, UniProt P48729)
[31] = molecular target: PKCnu (Homo sapiens, UniProt O94806)

CHK2, sequence (O96017 whole entry): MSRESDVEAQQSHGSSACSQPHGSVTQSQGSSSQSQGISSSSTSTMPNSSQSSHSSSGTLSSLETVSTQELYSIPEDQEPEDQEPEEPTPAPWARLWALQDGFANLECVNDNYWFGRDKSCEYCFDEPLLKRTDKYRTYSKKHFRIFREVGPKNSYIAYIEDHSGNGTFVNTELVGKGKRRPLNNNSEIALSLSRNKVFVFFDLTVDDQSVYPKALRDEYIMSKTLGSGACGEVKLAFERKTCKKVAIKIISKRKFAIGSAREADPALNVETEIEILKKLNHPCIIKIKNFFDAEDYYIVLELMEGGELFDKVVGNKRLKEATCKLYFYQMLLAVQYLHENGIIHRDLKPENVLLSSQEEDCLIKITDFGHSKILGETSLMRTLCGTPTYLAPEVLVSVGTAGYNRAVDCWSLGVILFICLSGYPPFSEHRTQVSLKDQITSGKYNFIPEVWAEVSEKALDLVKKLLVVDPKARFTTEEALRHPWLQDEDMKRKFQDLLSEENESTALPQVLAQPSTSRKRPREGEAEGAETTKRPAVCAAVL
CDK5/p35NCK, sequence (Q00535 whole entry): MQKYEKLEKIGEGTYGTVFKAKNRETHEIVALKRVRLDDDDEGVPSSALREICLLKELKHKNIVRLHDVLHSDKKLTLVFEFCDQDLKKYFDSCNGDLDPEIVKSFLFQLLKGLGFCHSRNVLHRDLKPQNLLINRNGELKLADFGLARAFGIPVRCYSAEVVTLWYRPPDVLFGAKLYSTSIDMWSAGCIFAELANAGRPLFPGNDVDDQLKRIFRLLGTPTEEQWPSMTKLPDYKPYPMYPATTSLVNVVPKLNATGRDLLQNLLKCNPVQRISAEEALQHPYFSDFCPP
CDK5/p35NCK, sequence (Q15078 whole entry partner): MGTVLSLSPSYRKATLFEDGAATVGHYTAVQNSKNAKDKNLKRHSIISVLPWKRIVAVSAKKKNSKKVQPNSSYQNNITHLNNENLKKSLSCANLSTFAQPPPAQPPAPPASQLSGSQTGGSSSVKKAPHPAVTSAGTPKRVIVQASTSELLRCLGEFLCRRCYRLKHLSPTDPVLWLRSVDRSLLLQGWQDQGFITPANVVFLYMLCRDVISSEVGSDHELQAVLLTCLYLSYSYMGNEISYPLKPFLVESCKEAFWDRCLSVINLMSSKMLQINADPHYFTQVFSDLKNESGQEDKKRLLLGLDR
IKKe, sequence (Q14164 whole entry): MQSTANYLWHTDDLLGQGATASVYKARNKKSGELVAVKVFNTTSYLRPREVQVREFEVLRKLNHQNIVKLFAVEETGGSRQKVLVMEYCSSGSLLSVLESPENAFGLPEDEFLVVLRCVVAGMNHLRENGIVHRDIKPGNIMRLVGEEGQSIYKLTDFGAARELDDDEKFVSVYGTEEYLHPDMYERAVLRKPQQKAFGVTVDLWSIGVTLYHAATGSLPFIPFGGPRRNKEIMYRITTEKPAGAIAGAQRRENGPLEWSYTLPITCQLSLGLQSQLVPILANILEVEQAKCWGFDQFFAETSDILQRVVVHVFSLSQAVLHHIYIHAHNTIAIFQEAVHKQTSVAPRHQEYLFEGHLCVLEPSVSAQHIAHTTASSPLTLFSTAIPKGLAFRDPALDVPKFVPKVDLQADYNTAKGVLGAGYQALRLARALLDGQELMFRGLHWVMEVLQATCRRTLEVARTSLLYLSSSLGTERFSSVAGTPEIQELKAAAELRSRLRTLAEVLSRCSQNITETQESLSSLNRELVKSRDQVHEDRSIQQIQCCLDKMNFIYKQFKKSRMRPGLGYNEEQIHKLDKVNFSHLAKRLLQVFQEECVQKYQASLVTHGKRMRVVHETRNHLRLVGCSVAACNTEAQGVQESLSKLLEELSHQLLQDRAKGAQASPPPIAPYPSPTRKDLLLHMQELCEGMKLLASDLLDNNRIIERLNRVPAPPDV
BLK, sequence (P51451 whole entry): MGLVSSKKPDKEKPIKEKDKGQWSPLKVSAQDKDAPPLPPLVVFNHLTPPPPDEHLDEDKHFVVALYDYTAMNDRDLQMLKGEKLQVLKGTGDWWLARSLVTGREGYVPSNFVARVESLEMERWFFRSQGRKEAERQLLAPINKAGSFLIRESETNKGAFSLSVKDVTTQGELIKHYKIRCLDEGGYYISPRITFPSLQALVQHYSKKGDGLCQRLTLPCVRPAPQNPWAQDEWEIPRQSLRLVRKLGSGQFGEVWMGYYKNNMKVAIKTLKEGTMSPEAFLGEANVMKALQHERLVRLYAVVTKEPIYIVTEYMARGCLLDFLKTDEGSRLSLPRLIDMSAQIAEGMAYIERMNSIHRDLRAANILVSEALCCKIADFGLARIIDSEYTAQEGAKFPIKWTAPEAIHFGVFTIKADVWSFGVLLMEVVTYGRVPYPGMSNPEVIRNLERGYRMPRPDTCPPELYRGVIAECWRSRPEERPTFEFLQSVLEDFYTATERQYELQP
BRK, sequence (Q13882 whole entry): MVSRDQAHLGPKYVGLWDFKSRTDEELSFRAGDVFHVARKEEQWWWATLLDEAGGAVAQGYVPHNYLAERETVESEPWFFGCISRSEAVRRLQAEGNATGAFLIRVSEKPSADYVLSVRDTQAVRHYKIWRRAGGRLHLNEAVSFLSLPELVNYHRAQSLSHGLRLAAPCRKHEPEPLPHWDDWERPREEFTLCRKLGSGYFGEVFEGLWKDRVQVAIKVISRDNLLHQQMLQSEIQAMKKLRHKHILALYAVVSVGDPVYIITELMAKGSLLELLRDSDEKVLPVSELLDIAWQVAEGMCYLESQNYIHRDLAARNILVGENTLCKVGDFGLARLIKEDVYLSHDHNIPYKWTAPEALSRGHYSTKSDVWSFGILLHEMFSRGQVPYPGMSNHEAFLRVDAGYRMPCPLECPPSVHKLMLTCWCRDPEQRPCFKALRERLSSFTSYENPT
PAK2, sequence (Q13177 whole entry): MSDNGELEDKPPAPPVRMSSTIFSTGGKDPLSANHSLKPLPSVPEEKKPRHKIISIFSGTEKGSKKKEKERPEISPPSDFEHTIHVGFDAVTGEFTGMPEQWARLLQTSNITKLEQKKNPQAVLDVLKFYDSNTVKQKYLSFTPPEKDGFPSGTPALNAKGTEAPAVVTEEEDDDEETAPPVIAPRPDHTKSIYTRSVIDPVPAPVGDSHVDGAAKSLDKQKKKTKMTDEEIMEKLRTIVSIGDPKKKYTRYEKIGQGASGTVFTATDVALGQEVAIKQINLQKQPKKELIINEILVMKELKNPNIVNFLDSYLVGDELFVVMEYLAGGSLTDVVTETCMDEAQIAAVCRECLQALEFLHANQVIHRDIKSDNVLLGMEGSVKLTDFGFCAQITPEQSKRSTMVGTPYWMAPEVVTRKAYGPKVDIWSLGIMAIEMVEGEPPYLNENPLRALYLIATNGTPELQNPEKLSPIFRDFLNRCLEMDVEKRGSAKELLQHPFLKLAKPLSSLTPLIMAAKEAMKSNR
JAK3, sequence (P52333 whole entry): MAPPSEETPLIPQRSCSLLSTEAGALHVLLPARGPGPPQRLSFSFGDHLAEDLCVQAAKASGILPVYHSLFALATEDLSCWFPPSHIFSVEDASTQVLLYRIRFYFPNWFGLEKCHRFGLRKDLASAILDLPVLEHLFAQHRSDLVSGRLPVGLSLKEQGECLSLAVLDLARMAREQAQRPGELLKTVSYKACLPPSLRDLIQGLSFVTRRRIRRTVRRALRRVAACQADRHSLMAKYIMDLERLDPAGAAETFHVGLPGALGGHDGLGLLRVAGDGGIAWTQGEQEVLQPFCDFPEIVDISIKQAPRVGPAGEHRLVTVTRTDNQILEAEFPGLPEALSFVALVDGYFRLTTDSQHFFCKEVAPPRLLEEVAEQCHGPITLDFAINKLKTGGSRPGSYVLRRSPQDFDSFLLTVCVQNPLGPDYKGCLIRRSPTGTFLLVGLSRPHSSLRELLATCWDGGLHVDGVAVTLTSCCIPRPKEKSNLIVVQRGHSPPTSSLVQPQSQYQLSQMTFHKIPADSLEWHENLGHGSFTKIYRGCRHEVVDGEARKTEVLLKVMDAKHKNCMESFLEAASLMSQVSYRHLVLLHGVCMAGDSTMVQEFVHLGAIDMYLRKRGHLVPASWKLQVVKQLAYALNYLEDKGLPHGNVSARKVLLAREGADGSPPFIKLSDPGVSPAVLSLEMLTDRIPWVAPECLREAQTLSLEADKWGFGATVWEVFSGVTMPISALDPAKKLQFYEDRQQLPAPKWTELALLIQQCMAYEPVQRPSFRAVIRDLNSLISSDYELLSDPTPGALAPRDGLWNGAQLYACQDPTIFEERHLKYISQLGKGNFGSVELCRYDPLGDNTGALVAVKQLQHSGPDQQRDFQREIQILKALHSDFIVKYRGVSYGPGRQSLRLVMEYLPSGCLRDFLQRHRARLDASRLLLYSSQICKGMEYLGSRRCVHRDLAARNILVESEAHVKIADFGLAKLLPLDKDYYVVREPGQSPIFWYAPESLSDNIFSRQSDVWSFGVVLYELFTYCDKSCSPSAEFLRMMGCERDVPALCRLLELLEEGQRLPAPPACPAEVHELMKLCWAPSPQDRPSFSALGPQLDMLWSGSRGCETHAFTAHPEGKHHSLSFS
TGFBR1, sequence (P36897 whole entry): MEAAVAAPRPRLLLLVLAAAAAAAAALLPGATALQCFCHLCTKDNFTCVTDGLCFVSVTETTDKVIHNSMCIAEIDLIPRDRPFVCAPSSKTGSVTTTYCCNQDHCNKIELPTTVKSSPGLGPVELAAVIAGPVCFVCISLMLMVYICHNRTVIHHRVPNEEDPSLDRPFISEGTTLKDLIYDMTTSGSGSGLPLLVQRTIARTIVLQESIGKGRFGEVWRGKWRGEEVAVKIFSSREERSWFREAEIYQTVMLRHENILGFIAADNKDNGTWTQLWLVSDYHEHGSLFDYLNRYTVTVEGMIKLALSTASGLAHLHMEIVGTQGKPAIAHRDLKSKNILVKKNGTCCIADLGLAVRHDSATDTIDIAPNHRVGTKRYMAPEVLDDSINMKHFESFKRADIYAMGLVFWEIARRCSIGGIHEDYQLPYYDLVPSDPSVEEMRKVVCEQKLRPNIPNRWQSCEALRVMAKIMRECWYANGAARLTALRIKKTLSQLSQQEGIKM

21c Remaining activity, percent of control [%] [1]: 121.3%
21c Remaining activity, percent of control [%] [2]: 98.6%
21c Remaining activity, percent of control [%] [3]: 124.6%
21c Remaining activity, percent of control [%] [4]: 103.0%
21c Remaining activity, percent of control [%] [5]: 67.5%
21c Remaining activity, percent of control [%] [6]: 99.3%
21c Remaining activity, percent of control [%] [7]: 103.6%
21c Remaining activity, percent of control [%] [8]: 113.2%
21c Remaining activity, percent of control [%] [9]: 95.4%
21c Remaining activity, percent of control [%] [10]: 115.4%
21c Remaining activity, percent of control [%] [11]: 110.6%
21c Remaining activity, percent of control [%] [12]: 79.1%
21c Remaining activity, percent of control [%] [13]: 84.0%
21c Remaining activity, percent of control [%] [14]: 100.8%
21c Remaining activity, percent of control [%] [15]: 88.8%
21c Remaining activity, percent of control [%] [16]: 96.1%
21c Remaining activity, percent of control [%] [17]: 100.7%
21c Remaining activity, percent of control [%] [18]: 92.6%
21c Remaining activity, percent of control [%] [19]: 103.1%
21c Remaining activity, percent of control [%] [20]: 114.2%
21c Remaining activity, percent of control [%] [21]: 86.5%
21c Remaining activity, percent of control [%] [22]: 96.4%
21c Remaining activity, percent of control [%] [23]: 102.0%
21c Remaining activity, percent of control [%] [24]: 84.5%
21c Remaining activity, percent of control [%] [25]: 96.6%
21c Remaining activity, percent of control [%] [26]: 96.2%
21c Remaining activity, percent of control [%] [27]: 103.7%
21c Remaining activity, percent of control [%] [28]: 96.9%
21c Remaining activity, percent of control [%] [29]: 81.8%
21c Remaining activity, percent of control [%] [30]: 102.0%
21c Remaining activity, percent of control [%] [31]: 78.1%
Structure (SMILES): O=C1NCCCCCNc2nc(c3ccccc3n2)Nc2cc1[nH]n2 [21c, (Z)-3^1H-2,5,11-triaza-1(4,2)-quinazolina-3(3,5)-pyrazolacycloundecaphan-4-one]
